Reference: PMC10303200 (ACS Central Science, 2023)

Key:
Format in all cases: binding
[1] = molecular target: T1, Sig7-Fc (Homo sapiens, UniProt Q9Y286); experiment: COIN-CaR-nMS with purified oligosaccharides listed beside the library glycans, 200 mM ammonium acetate, pH 6.9.; design: gene SIGLEC7; residues 1-345, human IgG1 Fc fusion and C-terminal His6, from CHO cells, MW 150 kDa
Target sequence in this assay (Q9Y286 1-345): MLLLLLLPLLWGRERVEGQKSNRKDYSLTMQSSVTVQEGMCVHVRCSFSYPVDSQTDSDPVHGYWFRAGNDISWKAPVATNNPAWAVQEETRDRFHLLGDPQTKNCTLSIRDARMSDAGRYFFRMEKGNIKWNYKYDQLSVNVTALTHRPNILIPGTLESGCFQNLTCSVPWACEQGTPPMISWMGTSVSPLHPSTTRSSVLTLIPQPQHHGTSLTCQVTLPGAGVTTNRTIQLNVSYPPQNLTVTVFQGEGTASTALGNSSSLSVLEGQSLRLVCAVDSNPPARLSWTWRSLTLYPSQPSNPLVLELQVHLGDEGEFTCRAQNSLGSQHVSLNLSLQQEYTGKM

[2] = molecular target: T2, GAL-3C (Homo sapiens, UniProt P17931); experiment: Direct native ESI-MS with a mixture of ten glycans (G2, G5-G13), 200 mM ammonium acetate, pH 6.9.; design: gene LGALS3; C-terminal carbohydrate recognition domain fragment, residues 107-250; details: SD, n = 8; read-out: Kd (nMS), Table S3
[3] = molecular target: T2, GAL-3C; experiment: COIN-nMS with a mixture of ten glycans (G2, G5-G13), 200 mM ammonium acetate, pH 6.9.; design: gene LGALS3; C-terminal carbohydrate recognition domain fragment, residues 107-250; details: SD, n = 8; read-out: Kd (COIN-nMS), Table S3
[4] = molecular target: T3, GAL-7 (Homo sapiens, UniProt P47929); experiment: COIN-nMS of the GAL-7 homodimer with a mixture of ten glycans (G2, G5-G13), 200 mM ammonium acetate, pH 6.9.; details: SD, n = 8; read-out: Kd (COIN-nMS), Table S4
T3 construct: gene LGALS7; homodimer (monomer MW 14.94 kDa)

[5] = molecular target: T3, GAL-7; experiment: Direct native ESI-MS of the GAL-7 homodimer with a mixture of ten glycans (G2, G5-G13), 200 mM ammonium acetate, pH 6.9.; details: SD, n = 8; read-out: Kd (nMS), Table S4
[6] = molecular target: T1, Sig7-Fc; experiment: COIN-CaR-nMS; design: Siglec 7-Fc (Sig7-Fc, residue 1–345, MW 150 kDa); His6 (C); made in house; host or cells: wild-type CHO cells
Target sequence in this assay (Q9Y286 19-345): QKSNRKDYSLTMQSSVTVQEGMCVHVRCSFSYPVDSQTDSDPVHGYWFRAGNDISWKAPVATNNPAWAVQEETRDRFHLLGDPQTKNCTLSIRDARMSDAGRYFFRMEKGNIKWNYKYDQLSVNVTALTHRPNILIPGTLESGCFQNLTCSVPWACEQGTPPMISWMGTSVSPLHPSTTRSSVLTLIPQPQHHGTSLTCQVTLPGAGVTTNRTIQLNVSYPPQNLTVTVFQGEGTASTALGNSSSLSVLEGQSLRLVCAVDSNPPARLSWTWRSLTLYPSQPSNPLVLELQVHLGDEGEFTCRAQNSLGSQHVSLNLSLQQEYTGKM

[7] = SD; read-out: Kd, purified oligosaccharides in Tables S12, S13, S18, S19
[8] = N-glycan natural libraries and purified oligosaccharides, pH 6.9, read-out: Kd
[9] = read-out: Kd, purified oligosaccharides in Tables S12, S13, S18, S19; SD

T2 sequence (P17931 107-250): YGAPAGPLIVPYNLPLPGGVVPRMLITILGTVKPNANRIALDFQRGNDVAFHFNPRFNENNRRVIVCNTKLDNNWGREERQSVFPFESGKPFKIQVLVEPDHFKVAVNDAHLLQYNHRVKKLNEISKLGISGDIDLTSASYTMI
T3 sequence (P47929 whole entry): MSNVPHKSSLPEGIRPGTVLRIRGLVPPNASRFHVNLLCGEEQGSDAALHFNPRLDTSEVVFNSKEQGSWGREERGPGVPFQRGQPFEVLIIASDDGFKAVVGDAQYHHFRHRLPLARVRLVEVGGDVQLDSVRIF

| Compound | Kd [2] [µM] | Kd [3] [µM] | Kd [4] [µM] | Kd [5] [µM] | further results |
| --- | --- | --- | --- | --- | --- |
| CC(=O)N[C@H]1[C@H](O[C@@H]2[C@H](O[C@]3(C(=O)O)C[C@H](O)[C@@H](NC(C)=O)[C@H]([C@H](O)[C@H](O)CO)O3)[C@@H](O)[C@H](O[C@H]3[C@H](O)[C@@H](O)C(O)O[C@@H]3CO)O[C@@H]2CO)O[C@H](CO)[C@H](O)[C@@H]1O[C@@H]1O[C@H](CO)[C@H](O)[C@H](O)[C@H]1O (stereo partly drawn) [GM1, GM1 oligosaccharide, β-D-Gal(1→3)-α-D-GalNAc(1→4)-[α-D-Neu5Ac-(2→3)]-β-D-Gal-(1→4)-D-Glc] | – | – | – | – | Kd [1, 7]: 437 µM |
| CC(=O)N[C@H]1[C@H](O[C@@H]2[C@H](O[C@]3(C(=O)O)C[C@H](O)[C@@H](NC(C)=O)[C@H]([C@H](O)[C@@H](CO)O[C@]4(C(=O)O)C[C@H](O)[C@@H](NC(C)=O)[C@H]([C@H](O)[C@H](O)CO)O4)O3)[C@@H](O)[C@H](O[C@H]3[C@H](O)[C@@H](O)C(O)O[C@@H]3CO)O[C@@H]2CO)O[C@H](CO)[C@H](O)[C@@H]1O (stereo partly drawn) [G29, GD2 oligosaccharide, α-D-GalNAc(1→4)-[α-D-Neu5Ac-(2→8)-α-D-Neu5Ac-(2→3)]-β-D-Gal-(1→4)-D-Glc] | – | – | – | – | Kd [1, 7]: 205 µM |
| CC(=O)N[C@H]1[C@H](O[C@H]2[C@@H](O)[C@@H](CO)O[C@@H](O[C@H]3[C@H](O)[C@@H](O)C(O)O[C@@H]3CO)[C@@H]2O)O[C@H](CO)[C@@H](O[C@@H]2O[C@H](CO)[C@H](O)[C@H](O)[C@H]2O)[C@@H]1O (stereo partly drawn) [G9, β-D-Gal-(1→4)-β-D-GlcNAc-(1→3)-β-D-Gal-(1→4)-β-D-Glc] | 23.2 | 12.9 | 439 | 348 | – |
| CC(=O)N[C@H]1[C@@H](O[C@H]2[C@@H](O)[C@@H](CO)O[C@@H](O[C@H]3[C@H](O)[C@@H](O)C(O)O[C@@H]3CO)[C@@H]2O[C@@H]2O[C@@H](C)[C@@H](O)[C@@H](O)[C@@H]2O)O[C@H](CO)[C@H](O)[C@@H]1O (stereo partly drawn) [G12, α-D-GalNAc-(1→3)-[α-L-Fuc-(1→2)]-β-D-Gal-(1→4)-β-D-Glc] | 11.3 | 10.4 | 333 | 184 | – |
| CC(=O)N[C@H]1[C@H](O[C@@H]2[C@H](O[C@]3(C(=O)O)C[C@H](O)[C@@H](NC(C)=O)[C@H]([C@H](O)[C@@H](CO)O[C@]4(C(=O)O)C[C@H](O)[C@@H](NC(C)=O)[C@H]([C@H](O)[C@H](O)CO)O4)O3)[C@@H](O)[C@H](O[C@H]3[C@H](O)[C@@H](O)C(O)O[C@@H]3CO)O[C@@H]2CO)O[C@H](CO)[C@H](O)[C@@H]1O[C@@H]1O[C@H](CO)[C@H](O)[C@H](O)[C@H]1O (stereo partly drawn) [GD1b, GD1b oligosaccharide, β-D-Gal(1→3)-α-D-GalNAc(1→4)-[α-D-Neu5Ac-(2→8)-α-D-Neu5Ac-(2→3)]-β-D-Gal-(1→4)-D-Glc] | – | – | – | – | Kd [1, 7]: 1220 µM |
| α-D-GalNAc(1→4)-[α-D-Neu5Ac-(2→3)]-β-D-Gal-(1→4)-D-Glc [Glycan G28] | – | – | – | – | Kd [6, 8]: 460 ± 117 µM |
| CC(=O)N[C@H]1[C@H](O[C@H]2[C@@H](O)[C@@H](CO)O[C@@H](O[C@H]3[C@H](O)[C@@H](NC(C)=O)[C@H](O[C@H]4[C@@H](O)[C@@H](CO)O[C@@H](O[C@H]5[C@H](O)[C@@H](O)C(O)O[C@@H]5CO)[C@@H]4O)O[C@@H]3CO)[C@@H]2O)O[C@H](CO)[C@@H](O[C@@H]2O[C@H](CO)[C@H](O)[C@H](O)[C@H]2O)[C@@H]1O (stereo partly drawn) [G7, β-D-Gal-(1→4)-β-D-GlcNAc(1→3)-β-D-Gal(1→4)-β-D-GlcNAc(1→3)-β-D-Gal(1→4)-β-D-Glc] | 5 | 2.9 | 362 | 348 | – |
| CC(=O)NC1C(OC2C(CO)OC(OC3C(CO)OC(O)C(O)C3O)C(O)C2OC2(C(=O)O)CC(O)C(NC(C)=O)C(C(O)C(CO)OC3(C(=O)O)CC(O)C(NC(C)=O)C(C(O)C(CO)OC4(C(=O)O)CC(O)C(NC(C)=O)C(C(O)C(O)CO)O4)O3)O2)OC(CO)C(O)C1O [GT2, GT2 oligosaccharide, α-D-GalNAc(1→4)-[α-D-Neu5Ac-(2→8)-α-D-Neu5Ac-(2→8)-α-D-Neu5Ac-(2→3)]-β-D-Gal-(1→4)-D-Glc] | – | – | – | – | Kd [1, 9]: 235 µM |
| CC(=O)N[C@H]1[C@H](O[C@@H]2[C@H](O[C@]3(C(=O)O)C[C@H](O)[C@@H](NC(C)=O)[C@H]([C@H](O)[C@@H](CO)O[C@]4(C(=O)O)C[C@H](O)[C@@H](NC(C)=O)[C@H]([C@H](O)[C@H](O)CO)O4)O3)[C@@H](O)[C@H](O[C@H]3[C@H](O)[C@@H](O)C(O)O[C@@H]3CO)O[C@@H]2CO)O[C@H](CO)[C@H](O)[C@@H]1O (stereo partly drawn) [Glycan G29, α-D-GalNAc(1→4)-[α-D-Neu5Ac-(2→8)-α-D-Neu5Ac-(2→3)]-β-D-Gal-(1→4)-D-Glc] | – | – | – | – | Kd ([6]; G21 1.0 μM and G29 30 μM, read-out: Kd (COIN-CaR-nMS), two ligands): 184 ± 5 µM; Kd ([6]; G21 5 μM and G29 30 μM, read-out: Kd (COIN-CaR-nMS), two ligands): 240 ± 2 µM; Kd ([6]; G21 10 μM and G29 30 μM, read-out: Kd (COIN-CaR-nMS), two ligands): 240 ± 10 µM |
| CC(=O)N[C@H]1[C@H](O[C@H]2[C@@H](O)[C@@H](CO)O[C@@H](O[C@H]3[C@H](O)[C@@H](NC(C)=O)[C@H](O[C@H]4[C@@H](O)[C@@H](CO)O[C@@H](O[C@H]5[C@H](O)[C@@H](NC(C)=O)[C@H](O[C@H]6[C@@H](O)[C@@H](CO)O[C@@H](O[C@H]7[C@H](O)[C@@H](O)C(O)O[C@@H]7CO)[C@@H]6O)O[C@@H]5CO)[C@@H]4O)O[C@@H]3CO)[C@@H]2O)O[C@H](CO)[C@@H](O[C@@H]2O[C@H](CO)[C@H](O)[C@H](O)[C@H]2O)[C@@H]1O (stereo partly drawn) [G8, β-D-Gal-(1→4)-β-D-GlcNAc-(1→3)-β-D-Gal-(1→4)-β-D-GlcNAc-(1→3)-β-D-Gal-(1→4)-β-D-GlcNAc-(1→3)-β-D-Gal-(1→4)-β-D-Glc] | 5.5 | 5.8 | 232 | 178 | – |
| CC(=O)N[C@H]1[C@H](O[C@H]2[C@@H](O)[C@@H](CO)O[C@@H](O[C@H]3[C@H](O[C@@H]4O[C@@H](C)[C@@H](O)[C@@H](O)[C@@H]4O)[C@@H](O)C(O)O[C@@H]3CO)[C@@H]2O)O[C@H](CO)[C@@H](O)[C@@H]1O[C@@H]1O[C@H](CO)[C@H](O)[C@H](O)[C@H]1O (stereo partly drawn) [G6, β-D-Gal(1→3)-β-D-GlcNAc(1→3)-β-D-Gal(1→4)-[α-L-Fuc(1→3)]-β-D-Glc] | 26.8 | 101 | 278 | 232 | – |
| CC(=O)NC1C(OC2C(CO)OC(OC3C(CO)OC(O)C(O)C3O)C(O)C2OC2(C(=O)O)CC(O)C(NC(C)=O)C(C(O)C(O)CO)O2)OC(CO)C(O)C1O [GM2, GM2 oligosaccharide, α-D-GalNAc(1→4)-[α-D-Neu5Ac-(2→3)]-β-D-Gal-(1→4)-D-Glc] | – | – | – | – | Kd [1, 9]: 460 µM |
| α-D-Neu5Ac-(2→8)-α-D-Neu5Ac-(2→8)-α-D-Neu5Ac-(2→3)-β-D-Gal-(1→4)-D-Glc [Glycan G27] | – | – | – | – | Kd [6, 8]: 184 ± 41 µM |
| β-D-Gal(1→3)-α-D-GalNAc(1→4)-[α-D-Neu5Ac-(2→8)-α-D-Neu5Ac-(2→8)-α-D-Neu5Ac-(2→3)]-β-D-Gal-(1→4)-D-Glc [Glycan G33] | – | – | – | – | Kd ([6]; N-glycan natural libraries and purified oligosaccharides, pH 6.9, listed as GT1c): weak or no binding |
| CC(=O)N[C@H]1[C@H]([C@H](O)[C@H](O)CO)O[C@@](O[C@H](CO)[C@@H](O)[C@@H]2O[C@@](O[C@H]3[C@@H](O)[C@@H](CO)O[C@@H](O[C@H]4[C@H](O)[C@@H](O)C(O)O[C@@H]4CO)[C@@H]3O)(C(=O)O)C[C@H](O)[C@H]2NC(C)=O)(C(=O)O)C[C@@H]1O (stereo partly drawn) [GD3, GD3 oligosaccharide, α-D-Neu5Ac-(2→8)-α-D-Neu5Ac-(2→3)-β-D-Gal-(1→4)-D-Glc] | – | – | – | – | Kd [1, 7]: 97 µM |
| CC(=O)NC1C(O)CC(OC(CO)C(O)C2OC(OC(CO)C(O)C3OC(OC4C(O)C(CO)OC(OC5C(CO)OC(O)C(O)C5O)C4O)(C(=O)O)CC(O)C3NC(C)=O)(C(=O)O)CC(O)C2NC(C)=O)(C(=O)O)OC1C(O)C(O)CO [GT3, GT3 oligosaccharide, α-D-Neu5Ac-(2→8)-α-D-Neu5Ac-(2→8)-α-D-Neu5Ac-(2→3)-β-D-Gal-(1→4)-D-Glc] | – | – | – | – | Kd ([1]; SD): 184 µM |
